Results from patent US11717580B2, “Cyclodextrin-linked polyvalent ligands for complexation of metal ions” (UTI LIMITED PARTNERSHIP, priority 2018, dated 2023).
Where two headings read alike, the source gives them in different places.

Tests used:
[1] = Potentiometric titrations of compound 5 (protonation constants); type: physicochemical
Protocol: T=298K, [L]=0.0625-1 μmol, [extra-HCl]=0-37.3 μmol in NMe4Cl (0.1 M); total initial volume: 4 mL; burette: [NMe4OH]=0.05 M.
Potentiometric titrations were performed to study the deprotonation of compound 5 (FIG. 6). The initial solution of compound 5 alone has a pH of ˜8.4; this value correlates well with extensive deprotonation observed in ATR-FTIR spectrum. Therefore, a solution of HCl in trimethylammonium chloride (0.1 M) was gradually added to the solution to obtain a series of solutions with varied HCl/5 ratios (0→597), while maintaining the total volume constant. To each prepared solution, a titrant solution of tetramethylammonium hydroxide (0.05 M) was added while the pH of the solution recorded; this enabled preparation of a series of titration curves (FIG. 7).
The protonation constant βh for the following equilibrium is defined by equation 1, where L represents the fully deprotonated form (L^14−) of compound 5 (LH14). H is the proton (charges are omitted).
[formula] As dissociation constants Ka are commonly defined by:
[formula] [formula] [formula] it is evident that Ka=log βh−log βh-1 (equation 3)
Table 1 reports all protonation constants determined by titration curve refinement and the corresponding acidity constants. All pKa values were ascribed to successive deprotonation of the carboxylic acids, followed by ammonium functions.

[2] = Potentiometric titrations of compound 5 with Gd(III) (stability constants and speciation of Gd(III) complexes); type: binding
Excerpt: Considering the collection of results obtained for the Gd(III)-compound 5, the best chemical model which fits the data corresponds to: (1) mononuclear GdL species for Gd:L ratio lower than 1, (2) binuclear species Gd2L for Gd:L ratio higher than 1 or (3) trinuclear species Gd3L for Gd:L ratio higher than 2.
The complexation of compound 5 with Gd(III) was studied by potentiometric titrations. While maintaining the amount of compound 5 (0.5 μmol) and HCl (9.95 μmol) constant within the cell, a solution of GdCl3 was then added to reach a specified ratio. This solution was then titrated with tetramethylammonium hydroxide (NMe4OH). It was noted that with the solution containing the highest Gd:L ratios, the addition of same amount of base caused a slower increase of pH (FIG. 12A). This could be explained by the displacement of protons from the protonated groups during Gd(III) complexation, thus acidifying the medium.
The stability constants of the Gd(III) complexes are expressed by the general formula:
[formula] with M being the metal ion, L the ligand, and H the proton (the charges are omitted), and dissociation constant Kmlh can be defined similarly to the case of free ligand as:
[formula] [formula] [formula] Analogously, pKmlh=log βmlh−log βmlh-1 (equation 6)
The stability constants of the Gd(III) complexes are reported in the Table 2 and distribution curves given in FIGS. 12B, 12C and 12D, respectively for 1:1, 2:1 and 3:1 Gd(III):compound 5 ratios.

HeLa cells = assay: In vitro cytotoxicity MTT assay, HeLa; type: cell-based; conditions: concentrations higher than 1 mM
HepG2 cells = assay: In vitro cytotoxicity MTT assay, HepG2; type: cell-based; conditions: concentrations higher than 1 mM
[3] = 12 MHz; cited from earlier work
[4] = cited from earlier work

In the case of `O=C(O)CN(CC(=O)O)Cc1cn(C[C@H]2O[C@@H]3O[C@H]4[C@H](O)[C@@H](O)[C@@H](O[C@H]5[C@H](O)[C@@H](O)[C@@H](O[C@H]6[C@H](O)[C@@H](O)[C@@H](O[C@H]7[C@H](O)[C@@H](O)[C@@H](O[C@H]8[C@H](O)[C@@H](O)[C@@H](O[C@H]9[C@H](O)[C@@H](O)[C@@H](O[C@H]2[C@H](O)[C@H]3O)O[C@@H]9Cn2cc(CN(CC(=O)O)CC(=O)O)nn2)O[C@@H]8Cn2cc(CN(CC(=O)O)CC(=O)O)nn2)O[C@@H]7Cn2cc(CN(CC(=O)O)CC(=O)O)nn2)O[C@@H]6Cn2cc(CN(CC(=O)O)CC(=O)O)nn2)O[C@@H]5Cn2cc(CN(CC(=O)O)CC(=O)O)nn2)O[C@@H]4Cn2cc(CN(CC(=O)O)CC(=O)O)nn2)nn1` [Compound 5], the “pH of initial solution” value ([1]; compound 5 alone) is reported as roughly 8.4, the “log βLHh” value ([1]; species LH) is reported as 8.80 and the pKa ([1]; species LH) is reported as 8.80. For the same compound, the “log βLHh” value ([1]; species LH2) was 17.77, the pKa ([1]; species LH2) was 9.08 and the “log βLHh” value ([1]; species LH3) was 26.44. The pKa ([1]; species LH3) was 8.56, the “log βLHh” value ([1]; species LH4) was 34.51 and the pKa ([1]; species LH4) was 8.07. The “log βLHh” value ([1]; species LH5) was 42.44, the pKa ([1]; species LH5) was roughly 7.93 and the “log βLHh” value ([1]; species LH6) was 50.03. For the same compound, the pKa ([1]; species LH6) was roughly 7.59, the “log βLHh” value ([1]; species LH7) was 56.23 and the pKa ([1]; species LH7) was 6.20. The “log βLHh” value ([1]; species LH8) was 61.22, the pKa ([1]; species LH8) was 4.99 and the “log βLHh” value ([1]; species LH9) was 64.85. The pKa ([1]; species LH9) was 3.63, the “log βLHh” value ([1]; species LH10) was 67.42 and the pKa ([1]; species LH10) was 2.57. For the same compound, the pKa ([1]; species LH11-LH21) was less than 2, the “log βMLHh” value ([2]; dinuclear species Gd2L (MLH 210)) was 36.28 and the “log βGd (210)−log βGd (110)” value ([2]; introduction of second Gd(III) cation) was 11.19. The “log βGd (310)−log βGd (210)” value ([2]; introduction of third Gd(III) cation) was 7.63, the “cytotoxic effect (inhibition)” value (HeLa cells) was 20-40% and the “cytotoxic effect (inhibition)” value (HepG2 cells) was 20-40%.
For `CO[C@@H]1[C@@H](OC)[C@H]2O[C@H]3[C@H](OC)[C@@H](OC)[C@@H](O[C@H]4[C@H](OC)[C@@H](OC)[C@@H](O[C@H]5[C@H](OC)[C@@H](OC)[C@@H](O[C@H]6[C@H](OC)[C@@H](OC)[C@@H](O[C@H]7[C@H](OC)[C@@H](OC)[C@@H](O[C@H]8[C@H](OC)[C@@H](OC)[C@@H](O[C@@H]1[C@@H](CN(CC(=O)O)CC(=O)O)O2)O[C@@H]8CN(CC(=O)O)CC(=O)O)O[C@@H]7CN(CC(=O)O)CC(=O)O)O[C@@H]6CN(CC(=O)O)CC(=O)O)O[C@@H]5CN(CC(=O)O)CC(=O)O)O[C@@H]4CN(CC(=O)O)CC(=O)O)O[C@@H]3CN(CC(=O)O)CC(=O)O` [compound 3], the relaxivity [3] is given as 8.8 mM⁻¹ s⁻¹.
For `CC[N+](CC)(CC)CC` [triethylammonium], the pKa [4] is listed as roughly 10.75.
